Reference: patent US20250059231A1, “Protease inhibitors” (priority 2021, published 2025)
Where a SMILES comes first, the peptide text is derived from it. [ ]: non-standard residue; d: D form. The star is where a group is joined. Palmitoyl = CCCCCCCCCCCCCCCC(=O)*

Target: T1, DENV protease (Dengue virus type 2, UniProt P29990)
T1 construct: The virus-encoded dengue protease comprises the amino-terminal 180 amino acids of NS3 (NS3pro) of the polyprotein
Assay: biochemical
Settings: at 50 μM; read-out: inhibition of DENV
In short: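 DENV protease (100 nM) was pre-incubated 15 min with inhibitors in 50 mM Tris-HCl pH 9.0, 10% ethylene glycol, 0.0016% Brij 58. FRET substrate (50 μM final) started the reaction, monitored 15 min as RFU/s slope. IC50 came from triplicate means versus concentration.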

T1 sequence (P29990 1398-1437): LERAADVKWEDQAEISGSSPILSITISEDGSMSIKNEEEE
T1 sequence (P29990 1476-1653): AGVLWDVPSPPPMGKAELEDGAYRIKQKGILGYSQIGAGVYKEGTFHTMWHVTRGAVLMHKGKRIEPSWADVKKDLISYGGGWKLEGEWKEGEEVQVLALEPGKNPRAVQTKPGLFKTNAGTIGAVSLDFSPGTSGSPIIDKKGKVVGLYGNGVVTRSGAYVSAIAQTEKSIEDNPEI

SMILES | inhibition at 50 µM
CCCCCCCCCCCCCCCC(=O)N[C@@H](CCCCN)C(=O)N[C@@H](C)C(=O)N[C@@H](C)C(=O)N[C@@H](Cc1cnc[nH]1)C(N)=O [compound 168] (Palmitoyl-KAAH-NH2) | ≥ 25%
CCCCCCCCCCCCCCCC(=O)N[C@@H](CCCCN)C(=O)N[C@@H](C)C(=O)N[C@@H](C)C(=O)N[C@H](Cc1c[nH]cn1)C(N)=O [compound 171] (Palmitoyl-KAA[dH]-NH2) | ≥ 25%
CCCCCCCCCCCCCCCC(=O)N[C@@H](CCCCN)C(=O)N[C@@H](C)C(=O)N[C@@H](CCCCN)C(C)=O [compound 175] | ≥ 25%
CCCCCCCCCCCCCCCC(=O)N[C@@H](CCCCN)C(=O)N[C@@H](C)C(=O)N[C@@H](C)C(=O)N[C@@H](C=O)CCCCN [compound 181] (Palmitoyl-KAA[dK]-aldehyde) | ≥ 25%
CCCCCCCCCCCCCCCC(=O)N[C@H](CCCCN)C(=O)N[C@@H](C)C(=O)N[C@@H](Cc1ccccc1)C(N)=O [compound 190] (Palmitoyl-[dK]-Ala-Phe-NH2) | ≥ 25%

Target: T2, WNV protease (West Nile virus, UniProt P06935)
T2 construct: a trypsin-like serine protease domain in the N-terminal region of the flaviviral NS3 proteins
Assay: WNV protease assay (analogous procedure)
Type: biochemical
Settings: at 50 μM
Method: (§1) By catalytic activity of the protease, the cleaved substrate results in increased fluorescence that can be monitored using a BMG Labtech Fluostar OPTIMA Microtiter fluorescence plate reader (excitation wavelength of 320 nm and a monitored emission wavelength of 405 nm). Dilutions were made starting from 10 mM stock solutions in DMSO and final concentrations were measured in triplicates. The inhibitors were preincubated for 15 min with DENV protease (100 nM) in the assay buffer (50 mM Tris-HCl pH 9.0, ethylene glycol (10% v/v), and 0.0016% Brij 58). The enzymatic reaction was initiated by the addition of the FRET substrate (final concentration 50 μM) to obtain a final assay volume of 100 μL per well. The enzymatic activity was monitored for 15 min and determined as a slope of relative fluorescence units per second (RFU/s) for each concentration. The mean of the triplicates were plotted against the corresponding concentration in CDDVault to determine the IC50-values. Analogous procedures were used to determine the inhibitory potency on WNV (Kühl et al., J. Med. Chem. 2020, 63 (15): 8179-8197) and ZIKA protease (Nitsche et al., ACS Med. Chem. Lett. 2019 Feb. 14; 10 (2): 168-174). For selectivity screening of active candidates, similar biochemical assays with human serine proteases trypsin (Weigel et al., J. Med. Chem. 2015, 58 (19), 7719-7733.) and/or thrombin (Nitsche et al., J. Med. Chem. 2013, 56 (21), 8389-8403) were used.

T2 sequence (P06935 1424-1463): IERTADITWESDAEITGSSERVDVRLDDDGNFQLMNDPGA
T2 sequence (P06935 1502-1679): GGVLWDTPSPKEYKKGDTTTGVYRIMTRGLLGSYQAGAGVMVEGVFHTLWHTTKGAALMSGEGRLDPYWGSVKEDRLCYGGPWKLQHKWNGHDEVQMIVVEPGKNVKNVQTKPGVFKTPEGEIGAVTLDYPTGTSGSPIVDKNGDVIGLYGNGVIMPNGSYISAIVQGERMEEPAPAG

SMILES | inhibition at 50 µM
CCCCCCCCCCCCCCCC(=O)N[C@@H](CCCCN)C(=O)N[C@@H](C)C(=O)N[C@@H](C)C(=O)N[C@@H](Cc1cnc[nH]1)C(N)=O [compound 168] (Palmitoyl-KAAH-NH2) | ≥ 25%
CCCCCCCCCCCCCCCC(=O)N[C@@H](CCCCN)C(=O)N[C@@H](C)C(=O)N[C@@H](C)C(=O)N[C@H](Cc1c[nH]cn1)C(N)=O [compound 171] (Palmitoyl-KAA[dH]-NH2) | ≥ 25%
CCCCCCCCCCCCCCCC(=O)N[C@@H](CCCCN)C(=O)N[C@@H](C)C(=O)N[C@@H](CCCCN)C(C)=O [compound 175] | ≥ 25%
CCCCCCCCCCCCCCCC(=O)N[C@@H](CCCCN)C(=O)N[C@@H](C)C(=O)N[C@@H](C)C(=O)N[C@@H](C=O)CCCCN [compound 181] (Palmitoyl-KAA[dK]-aldehyde) | ≥ 25%
CCCCCCCCCCCCCCCC(=O)N[C@H](CCCCN)C(=O)N[C@@H](C)C(=O)N[C@@H](Cc1ccccc1)C(N)=O [compound 190] (Palmitoyl-[dK]-Ala-Phe-NH2) | ≥ 25%

Target: T3, ZIKA protease (Zika virus, UniProt Q32ZE1)
T3 construct: a trypsin-like serine protease domain in the N-terminal region of the flaviviral NS3 proteins
Assay: biochemical
Settings: not given
Method: as §1

T3 sequence (Q32ZE1 1499-1676): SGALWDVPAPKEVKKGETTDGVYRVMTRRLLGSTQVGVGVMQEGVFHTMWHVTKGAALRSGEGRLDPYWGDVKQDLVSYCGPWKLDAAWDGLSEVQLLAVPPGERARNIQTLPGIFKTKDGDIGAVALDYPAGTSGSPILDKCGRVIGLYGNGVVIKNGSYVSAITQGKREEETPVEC
T3 sequence (Q32ZE1 1421-1460): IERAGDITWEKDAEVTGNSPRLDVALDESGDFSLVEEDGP

SMILES | IC50
CCCCCCCCCCCCCCCC(=O)N[C@@H](CCCCN)C(=O)N[C@@H](C)C(=O)N[C@@H](C)C(=O)N[C@@H](Cc1cnc[nH]1)C(N)=O [compound 168] (Palmitoyl-KAAH-NH2) | ≤ 25 µM
CCCCCCCCCCCCCCCC(=O)N[C@@H](CCCCN)C(=O)N[C@@H](C)C(=O)N[C@@H](C)C(=O)N[C@H](Cc1c[nH]cn1)C(N)=O [compound 171] (Palmitoyl-KAA[dH]-NH2) | ≤ 25 µM
CCCCCCCCCCCCCCCC(=O)N[C@@H](CCCCN)C(=O)N[C@@H](C)C(=O)N[C@@H](CCCCN)C(C)=O [compound 175] | ≤ 25 µM

Same assay, conditions: at 1 μM; read-out: inhibition of ZIKV

SMILES | inhibition at 1 µM
CCCCCCCCCCCCCCCC(=O)N[C@@H](CCCCN)C(=O)N[C@@H](C)C(=O)N[C@@H](C)C(=O)N[C@@H](Cc1cnc[nH]1)C(N)=O [compound 168] (Palmitoyl-KAAH-NH2) | ≥ 10%

Same assay, conditions: at 50 μM; read-out: inhibition of ZIKV

SMILES | inhibition at 50 µM
CCCCCCCCCCCCCCCC(=O)N[C@@H](CCCCN)C(=O)N[C@@H](C)C(=O)N[C@@H](C)C(=O)N[C@@H](Cc1cnc[nH]1)C(N)=O [compound 168] (Palmitoyl-KAAH-NH2) | ≥ 65%
CCCCCCCCCCCCCCCC(=O)N[C@@H](CCCCN)C(=O)N[C@@H](C)C(=O)N[C@@H](C)C(=O)N[C@H](Cc1c[nH]cn1)C(N)=O [compound 171] (Palmitoyl-KAA[dH]-NH2) | ≥ 65%
CCCCCCCCCCCCCCCC(=O)N[C@@H](CCCCN)C(=O)N[C@@H](C)C(=O)N[C@@H](CCCCN)C(C)=O [compound 175] | ≥ 65%

Target: human Thrombin (Homo sapiens, UniProt P00734)
Assay: Selectivity screening, human serine protease thrombin
Type: biochemical
Settings: at 5 μM; read-out: inhibition of human Thrombin
Method: as §1

SMILES | inhibition at 5 µM
CCCCCCCCCCCCCCCC(=O)N[C@@H](CCCCN)C(=O)N[C@@H](C)C(=O)N[C@@H](C)C(=O)N[C@@H](Cc1cnc[nH]1)C(N)=O [compound 168] (Palmitoyl-KAAH-NH2) | < 5%
CCCCCCCCCCCCCCCC(=O)N[C@@H](CCCCN)C(=O)N[C@@H](C)C(=O)N[C@@H](C)C(=O)N[C@H](Cc1c[nH]cn1)C(N)=O [compound 171] (Palmitoyl-KAA[dH]-NH2) | < 5%
CCCCCCCCCCCCCCCC(=O)N[C@@H](CCCCN)C(=O)N[C@@H](C)C(=O)N[C@@H](CCCCN)C(C)=O [compound 175] | < 5%
CCCCCCCCCCCCCCCC(=O)N[C@@H](CCCCN)C(=O)N[C@@H](C)C(=O)N[C@@H](C)C(=O)N[C@@H](C=O)CCCCN [compound 181] (Palmitoyl-KAA[dK]-aldehyde) | < 5%
CCCCCCCCCCCCCCCC(=O)N[C@H](CCCCN)C(=O)N[C@@H](C)C(=O)N[C@@H](Cc1ccccc1)C(N)=O [compound 190] (Palmitoyl-[dK]-Ala-Phe-NH2) | < 5%

Target: human Trypsin (Homo sapiens, UniProt P07477)
Assay: Selectivity screening, human serine protease trypsin
Type: biochemical
Settings: at 5 μM; read-out: inhibition of human Trypsin
Method: as §1

SMILES | inhibition at 5 µM
CCCCCCCCCCCCCCCC(=O)N[C@@H](CCCCN)C(=O)N[C@@H](C)C(=O)N[C@@H](C)C(=O)N[C@@H](Cc1cnc[nH]1)C(N)=O [compound 168] (Palmitoyl-KAAH-NH2) | < 10%
CCCCCCCCCCCCCCCC(=O)N[C@@H](CCCCN)C(=O)N[C@@H](C)C(=O)N[C@@H](C)C(=O)N[C@H](Cc1c[nH]cn1)C(N)=O [compound 171] (Palmitoyl-KAA[dH]-NH2) | < 10%
CCCCCCCCCCCCCCCC(=O)N[C@@H](CCCCN)C(=O)N[C@@H](C)C(=O)N[C@@H](CCCCN)C(C)=O [compound 175] | < 10%
CCCCCCCCCCCCCCCC(=O)N[C@H](CCCCN)C(=O)N[C@@H](C)C(=O)N[C@@H](Cc1ccccc1)C(N)=O [compound 190] (Palmitoyl-[dK]-Ala-Phe-NH2) | < 10%

Same assay, conditions: at 25 μM; read-out: inhibition of human Trypsin

SMILES | inhibition at 25 µM
CCCCCCCCCCCCCCCC(=O)N[C@@H](CCCCN)C(=O)N[C@@H](C)C(=O)N[C@@H](C)C(=O)N[C@@H](Cc1cnc[nH]1)C(N)=O [compound 168] (Palmitoyl-KAAH-NH2) | < 20%
CCCCCCCCCCCCCCCC(=O)N[C@@H](CCCCN)C(=O)N[C@@H](C)C(=O)N[C@@H](C)C(=O)N[C@H](Cc1c[nH]cn1)C(N)=O [compound 171] (Palmitoyl-KAA[dH]-NH2) | < 20%
CCCCCCCCCCCCCCCC(=O)N[C@@H](CCCCN)C(=O)N[C@@H](C)C(=O)N[C@@H](CCCCN)C(C)=O [compound 175] | < 20%
CCCCCCCCCCCCCCCC(=O)N[C@@H](CCCCN)C(=O)N[C@@H](C)C(=O)N[C@@H](C)C(=O)N[C@@H](C=O)CCCCN [compound 181] (Palmitoyl-KAA[dK]-aldehyde) | < 20%
CCCCCCCCCCCCCCCC(=O)N[C@H](CCCCN)C(=O)N[C@@H](C)C(=O)N[C@@H](Cc1ccccc1)C(N)=O [compound 190] (Palmitoyl-[dK]-Ala-Phe-NH2) | < 20%

Target: T2, WNV protease
Assay: WNV protease assay (analogous procedure)
Type: biochemical
Settings: read-out: IC50 for WNNV

SMILES | IC50
CCCCCCCCCCCCCCCC(=O)N[C@@H](CCCCN)C(=O)N[C@@H](C)C(=O)N[C@@H](C)C(=O)N[C@@H](Cc1cnc[nH]1)C(N)=O [compound 168] (Palmitoyl-KAAH-NH2) | ≤ 40 µM
CCCCCCCCCCCCCCCC(=O)N[C@@H](CCCCN)C(=O)N[C@@H](C)C(=O)N[C@@H](C)C(=O)N[C@H](Cc1c[nH]cn1)C(N)=O [compound 171] (Palmitoyl-KAA[dH]-NH2) | ≤ 40 µM
CCCCCCCCCCCCCCCC(=O)N[C@@H](CCCCN)C(=O)N[C@@H](C)C(=O)N[C@@H](CCCCN)C(C)=O [compound 175] | ≤ 40 µM
CCCCCCCCCCCCCCCC(=O)N[C@@H](CCCCN)C(=O)N[C@@H](C)C(=O)N[C@@H](C)C(=O)N[C@@H](C=O)CCCCN [compound 181] (Palmitoyl-KAA[dK]-aldehyde) | ≤ 40 µM
CCCCCCCCCCCCCCCC(=O)N[C@H](CCCCN)C(=O)N[C@@H](C)C(=O)N[C@@H](Cc1ccccc1)C(N)=O [compound 190] (Palmitoyl-[dK]-Ala-Phe-NH2) | ≤ 40 µM
